Where two headings read alike, the source gives them in different places.
How the values were obtained:
[1] = test system: SARS-CoV-2 pseudovirus (BacMam) entry into ACE2 expressing host cells (HEK293T); experiment: microbe, parasite or virus in culture; type: cell-based, SARS-CoV-2 pseudovirus / human cells; conditions: Severe acute respiratory syndrome-related coronavirus, HEK-293T, read-out: IC50, inhibition of pseudovirus entry (BacMam)
SARS-CoV-S1S2-hACE2 PPI = SARS-CoV-S1S2-hACE2 PPI (Severe acute respiratory syndrome coronavirus, UniProt P59594); experiment: biochemical; type: binding, SARS-CoV / human
SARS-CoV-2-RBD-hACE2 PPI = SARS-CoV-2-RBD-hACE2 PPI (Severe acute respiratory syndrome coronavirus 2, UniProt P0DTC2); experiment: biochemical; type: binding, SARS-CoV-2 / human
[2] = read-out: IC50, SARS-CoV S-hACE2 assay
[3] = read-out: IC50, SARS-CoV-2 S-ACE2 assay

## O=C(Nc1ccc(-c2ccc(C(=O)Nc3cccc4cc(S(=O)(=O)O)ccc34)cc2)cc1)c1ccc([N+](=O)[O-])cc1 [Compound A2, 5-(4′-(4-Nitrobenzamido)biphenyl-4-ylcarboxamido)naphthalene-2-sulfonic acid]
[1]
  IC50: 5.6 µM
SARS-CoV-S1S2-hACE2 PPI
  IC50: 3.4 µM

## O=C(Nc1ccc2cc(S(=O)(=O)O)cc(O)c2c1)c1ccc(-c2ccc(C(=O)Nc3ccc4cc(S(=O)(=O)O)cc(O)c4c3)cc2)cc1 [Compound A5]
SARS-CoV-2-RBD-hACE2 PPI; IC50, SARS-CoV-2 S-ACE2 assay
  IC50: 0.16 µM
SARS-CoV-S1S2-hACE2 PPI
  IC50: 0.24 µM

## Nc1c(/N=N/c2ccc(-c3ccc(/N=N/c4cc(S(=O)(=O)O)c5ccccc5c4N)cc3)cc2)cc(S(=O)(=O)O)c2ccccc12 [Congo red]
[1]
  IC50: 20 µM
SARS-CoV-S1S2-hACE2 PPI; [2]
  IC50: 3.9 µM

## Cc1cc(-c2ccc(/N=N/c3ccc4c(S(=O)(=O)O)cc(S(=O)(=O)O)c(N)c4c3O)c(C)c2)ccc1/N=N/c1ccc2c(S(=O)(=O)O)cc(S(=O)(=O)O)c(N)c2c1O [Evans blue]
SARS-CoV-S1S2-hACE2 PPI; [2]
  IC50: 1.3 µM

## CCOc1ccc(N=Nc2ccc(-c3ccc(N=Nc4c(O)ccc5cc(S(=O)(=O)O)cc(S(=O)(=O)O)c45)c(C)c3)cc2C)cc1 [calcomine scarlet 3B]
SARS-CoV-2-RBD-hACE2 PPI; [3]
  IC50: 4.25 µM
SARS-CoV-S1S2-hACE2 PPI; [2]
  IC50: 9.9 µM

## Nc1ccc(N=Nc2ccc(-c3ccc(N=Nc4c(S(=O)(=O)O)cc5cc(S(=O)(=O)O)c(N=Nc6ccccc6)c(O)c5c4N)cc3)cc2)c(N)c1 [chlorazol black]
SARS-CoV-2-RBD-hACE2 PPI; [3]
  IC50: 2.57 µM

## Nc1ccc2cc(S(=O)(=O)O)cc(O)c2c1N=Nc1ccc(-c2ccc(N=Nc3c(N)ccc4cc(S(=O)(=O)O)cc(O)c34)cc2)cc1 [direct violet 1]
SARS-CoV-S1S2-hACE2 PPI; [2]
  IC50: 2.6 µM
